In patent US9581587B2, “Sperm staining and sorting methods” (INGURAN, LLC, priority 2011, dated 2017):

How the values were obtained:
[1] = system: sperm; assay: Split quality, split enhancing dyes at various concentrations and incubation times (Example 10); type: cell-based, bulls; conditions: 15, 45, 125 μM; 30-75 minutes; averaged over 8 bulls
Description: Eight bulls were collected, including 4 Jersey bulls, 3 Holstein bulls and one mixed dairy-breed. The ejaculates were collected at concentrations ranging from 1700×10^6 sperm/ml to 1100×10^6 sperm/ml and all had progressive motility of a least 60%.
Sperm from each bull was extended to 160 million per ml with a first buffer, (TALP described in table 1 at a pH 7.4) and stained with 64 μM (164/2 mL) Hoechst 33342 at 34° C. Additionally, Phenol Red, Red Food Dye No. 2, Red Food Dye No. 3, and Red Food Dye No. 4, were each tested as split enhancing dyes in the first buffer at concentrations of 15 μM, 45 μM and 125 μM. For each bull, each concentration of each dye was incubated for periods of 30 minutes, 45 minutes, 60 minutes, and 75 minutes were utilized before a second buffer with an additional dye was applied.
Each sample was then extended in an equal volume of a second buffer which comprised a 5.5 pH modified TALP having 25 μM yellow food dye No. 6 (acting as a dead quenching dye) in addition to the split enhancing dye provided in the first buffer. The second buffer was applied to every sample at 30 minutes, 45 minutes, 60 minutes, and 75 minutes. A control was additionally taken without any split enhancing dye for every bull at every time interval.
Sorting was performed on a MoFlo SX (Beckman Coulter, USA) in substantially the same manner described in Example 5. After calibration, screen shots of sorting histograms were taken and split quality was measured by peak to valley ratios in the same way described in Example 5 with reference to FIG. 4 and the resulting data, averaged over all 8 bulls, is found in Tables 18-21. Additionally, screen shots of bivariate plots were taken to measure the added dead quenching capacity of the mixed dead quenching and split enhancing dyes.

[2] = system: sperm; assay: Split quality, phenol red as added split enhancing dye (Example 8); type: cell-based, bulls (Jersey, Holstein)
Description: Two bulls were collected for the Example 8. The Bull 1 was a Jersey bulls and Bull 2 was a Holstein collected substantially in the manner described in example 1. Sperm from Bull 1 extended to 160 million per with a first buffer, (TALP described in table 1 at a pH 7.4) and divided into two groups for staining. The first group was stained with 44 μM Hoechst 33342 and the second group was stained with 60 μM Hoechst 33342. Similarly, bull 2 was suspended to 160 million per mL the first buffer, (TALP described in table 1 at a pH 7.4) and divided into three groups for staining. The first group was stained with 28 μM Hoechst 33342 and the second group was stained with 44 μM Hoechst 33342 and the third group was stained with 66 μM Hoechst 33342. Each group was incubated for 1 hour at 34° C. and then extended in an equal volume of the second buffer. […] The stained samples were each treated with a variety of quenching dyes and combinations of quenching dyes indicated in below. […] After calibration, screen shots of sorting histograms were taken and histograms split quality was measured as a peak to valley ratio in the same way described in Example 5 with reference to FIG. 4 and the resulting data is found in Table 16.

[3] = system: membrane compromised sperm; assay: Dead gate intensity, yellow 5 and phenol red at higher concentrations (Example 6); type: cell-based, Jersey bull; conditions: Hoechst 12 μL/2 mL
[4] = system: membrane compromised sperm; assay: Bivariate plots comparing dead quenching dyes (FIG. 3); type: cell-based; conditions: three bulls, equal amounts of Hoechst 33342 and of dye
From the text: FIG. 3 illustrates comparisons of bivariate plots generated in sex sorting sperm which reflect the intensity of the excited DNA selective fluorescent dye during sorting. Three bulls were stained with equal amounts of Hoechst 33342 and with an equal amount of yellow food dye No. 6 and red food dye No. 40. The region labeled as R4 surrounds what is considered the “dead” sperm population, while the region R1 is centered on viable, oriented sperm. It can be seen that for each bull yellow food dye no.

Structure (SMILES)	split enhancing effect compared to control [1]	effect of adding phenol red on split quality ([2]; each Hoechst staining level, with Red 40 or Yellow 6)	Intensity ([3]; dye 125 μM, pH 7.40) [%]	Intensity ([3]; dye 250 μM, pH 7.40) [%]	Intensity ([3]; dye 500 μM, pH 7.40) [%]	Intensity ([3]; dye 750 μM, pH 7.40) [%]	Intensity ([3]; dye 875 μM, pH 7.40) [%]	Intensity ([3]; dye 1250 μM, second buffer pH 7.40) [%]	PV ([2]; Bull 1, Hoechst 33342 44 μM, R40 0, Y6 50 μM, PR 0)	quenching of the dead population compared to red food dye No. 40 [4]
O=S1(=O)OC(c2ccc(O)cc2)(c2ccc(O)cc2)c2ccccc21 [Phenol Red, phenolsulfonphthalein]	provided consistent split improvements at all concentrations after 30 minutes	always improved split quality	85	76	66	56	47	43	–	–
O=S(=O)([O-])c1ccc(N=Nc2c(O)ccc3cc(S(=O)(=O)[O-])ccc23)cc1.[Na+].[Na+] [Yellow 6, Disodium 6-hydroxy-5[(4-sulfophenyl)azo]-2-naphthalenesulfononate]	–	–	–	–	–	–	–	–	1.20	superior quenching
